These are literature values, as cited in US20200215051A1, “NEBULIZATION COMPOSITION COMPRISING TIOTROPIUM AND INDACATEROL” (GLENMARK SPECIALTY S.A., priority 2019, published 2020).

The conditions of the data set: water.

Each structure is given as a SMILES string.

For `CCc1cc2c(cc1CC)CC(NC[C@H](O)c1ccc(O)c3[nH]c(=O)ccc13)C2` [Indacaterol, 5-[(1R)-2-[(5,6-diethyl-2,3-dihydro-1H-inden-2-yl)amino]-1-hydroxyethyl]-8-hydroxy-1H-quinolin-2-one], the aqueous solubility result was “very slightly soluble in water”.
